How the values were obtained:
[1] = tested on: ASPC1; experiment: Cytotoxicity against human ASPC1 cells measured after 8 days; type: functional, cell-based; conditions: ASPC1, 192 h
[2] = Cytotoxicity against human NB(TU)1 cells measured after 8 days; type: functional, cell-based; conditions: NB(TU)1, 192 h
[3] = tested on: BHY; experiment: Cytotoxicity against human BHY cells measured after 8 days; type: functional, cell-based; conditions: 192 h
[4] = tested on: IGR-1; experiment: Cytotoxicity against human IGR-1 cells measured after 8 days; type: functional, cell-based; conditions: IGR-1, 192 h
[5] = tested on: CAL-54; experiment: Cytotoxicity against human CAL-54 cells measured after 8 days; type: functional, cell-based; conditions: CAL-54, 192 h
[6] = Cytotoxicity against mouse Clone M-3 cells measured after 8 days; type: functional, cell-based; conditions: Clone M-3, 192 h
[7] = tested on: COR-L88; experiment: Cytotoxicity against human COR-L88 cells measured after 8 days; type: functional, cell-based; conditions: COR-L88, 192 h
[8] = tested on: JJN-3; experiment: Cytotoxicity against human JJN-3 cells measured after 8 days; type: functional, cell-based; conditions: JJN-3, 192 h
[9] = Cytotoxicity against human U-87 MG cells measured after 8 days; type: functional, cell-based, U-87MG ATCC; conditions: 192 h
[10] = tested on: Ishikawa; experiment: Cytotoxicity against human Ishikawa cells measured after 8 days; type: functional, cell-based; conditions: 192 h
[11] = tested on: U2OS; experiment: Cytotoxicity against human U2OS cells measured after 8 days; type: functional, cell-based; conditions: 192 h
[12] = tested on: A673; experiment: Cytotoxicity against human A673 cells measured after 8 days; type: functional, cell-based; conditions: A673, 192 h
[13] = tested on: SK-CO-1; experiment: Cytotoxicity against human SK-CO-1 cells measured after 8 days; type: functional, cell-based; conditions: SK-CO-1, 192 h
[14] = tested on: OVCAR-3; experiment: Cytotoxicity against human OVCAR-3 cells measured after 8 days; type: functional, cell-based; conditions: OVCAR-3, 192 h
[15] = tested on: COR-L47; experiment: Cytotoxicity against human COR-L47 cells measured after 8 days; type: functional, cell-based; conditions: COR-L47, 192 h
[16] = tested on: BOKU; experiment: Cytotoxicity against human BOKU cells measured after 8 days; type: functional, cell-based; conditions: 192 h
[17] = tested on: TOV21G; experiment: Cytotoxicity against human TOV-21G cells measured after 8 days; type: functional, cell-based; conditions: 192 h
[18] = Cytotoxicity against human JJ012 cells measured after 8 days; type: functional, cell-based; conditions: JJ012, 192 h
[19] = tested on: G-361; experiment: Cytotoxicity against human G-361 cells measured after 8 days; type: functional, cell-based; conditions: G-361, 192 h
[20] = tested on: NCI-H716; experiment: Cytotoxicity against human NCI-H716 cells measured after 8 days; type: functional, cell-based; conditions: NCI-H716, 192 h
[21] = tested on: Jurkat; experiment: Cytotoxicity against human Jurkat cells measured after 8 days; type: functional, cell-based; conditions: 192 h
[22] = tested on: HuP-T4; experiment: Cytotoxicity against human HuP-T4 cells measured after 8 days; type: functional, cell-based; conditions: HuP-T4, 192 h
[23] = tested on: SET-2; experiment: Cytotoxicity against human SET2 cells measured after 8 days; type: functional, cell-based; conditions: SET-2, 192 h
[24] = Cytotoxicity against human KMS-26 cells measured after 8 days; type: functional, cell-based; conditions: KMS-26, 192 h
[25] = tested on: MC-38; experiment: Cytotoxicity against mouse MC38 ovalbumin cells measured after 8 days; type: functional, cell-based; conditions: MC-38, 192 h
[26] = tested on: CAKI-1; experiment: Cytotoxicity against human CAKI-1 cells measured after 8 days; type: functional, cell-based; conditions: CAKI-1, 192 h
[27] = Cytotoxicity against human COLO 857 cells measured after 8 days; type: functional, cell-based; conditions: COLO 857, 192 h
[28] = tested on: TK-10; experiment: Cytotoxicity against human TK-10 cells measured after 8 days; type: functional, cell-based; conditions: TK-10, 192 h
[29] = tested on: CAKI-2; experiment: Cytotoxicity against human CAKI-2 cells measured after 8 days; type: functional, cell-based; conditions: CAKI-2, 192 h
[30] = Cytotoxicity against human COV362.4 cells measured after 8 days; type: functional, cell-based; conditions: COV362.4, 192 h
[31] = Cytotoxicity against human HCC1482 cells measured after 8 days; type: functional, cell-based; conditions: HCC1482, 192 h
[32] = tested on: SNU-449; experiment: Cytotoxicity against human SNU-449 cells measured after 8 days; type: functional, cell-based; conditions: SNU-449, 192 h
[33] = Cytotoxicity against human TCC-Pan2 cells measured after 8 days; type: functional, cell-based; conditions: TCC-Pan2, 192 h
[34] = Cytotoxicity against mouse FOX-NY cells measured after 8 days; type: functional, cell-based; conditions: 192 h
[35] = tested on: CFPAC-1; experiment: Cytotoxicity against human CFPAC-1 cells measured after 8 days; type: functional, cell-based; conditions: CFPAC-1, 192 h
[36] = Cytotoxicity against human KE-39 cells measured after 8 days; type: functional, cell-based; conditions: KE-39, 192 h
[37] = Cytotoxicity against human ECC-1 cells measured after 8 days; type: functional, cell-based; conditions: ECC-1, 192 h
[38] = Cytotoxicity against human NCE-G 121 cells measured after 8 days; type: functional, cell-based; conditions: NCE-G 121, 192 h
[39] = tested on: MC-IXC; experiment: Cytotoxicity against human MC-IXC cells measured after 8 days; type: functional, cell-based; conditions: 192 h
[40] = tested on: BCPAP; experiment: Cytotoxicity against human BCPAP cells measured after 8 days; type: functional, cell-based; conditions: 192 h
[41] = Cytotoxicity against human NCI-H2135 cells measured after 8 days; type: functional, cell-based; conditions: NCI-H2135, 192 h
[42] = tested on: HuCCT-1; experiment: Cytotoxicity against human HuCCT-1 cells measured after 8 days; type: functional, cell-based; conditions: HuCCT-1, 192 h
[43] = tested on: C170; experiment: Cytotoxicity against human C170 cells measured after 8 days; type: functional, cell-based; conditions: C170, 192 h
[44] = tested on: SKG-IIIa; experiment: Cytotoxicity against human SKG-IIIa cells measured after 8 days; type: functional, cell-based; conditions: 192 h
[45] = tested on: T98G; experiment: Cytotoxicity against human T98G cells measured after 8 days; type: functional, cell-based; conditions: 192 h
[46] = Cytotoxicity against human NCE-G 59 cells measured after 8 days; type: functional, cell-based; conditions: NCE-G 59, 192 h
[47] = tested on: SK-N-BE(2)-M17; experiment: Cytotoxicity against human SK-N-BE(2)-M17 cells measured after 8 days; type: functional, cell-based; conditions: SK-N-BE(2)-M17, 192 h
[48] = tested on: SW837; experiment: Cytotoxicity against human SW837 cells measured after 8 days; type: functional, cell-based; conditions: SW837, 192 h
[49] = tested on: Malme-3M; experiment: Cytotoxicity against human Malme-3M cells measured after 8 days; type: functional, cell-based; conditions: 192 h
[50] = Cytotoxicity against human NCE-G 28T cells measured after 8 days; type: functional, cell-based; conditions: 192 h
[51] = Cytotoxicity against human GOTO.P3 cells measured after 8 days; type: functional, cell-based; conditions: GOTO.P3, 192 h
[52] = tested on: SK-N-SH; experiment: Cytotoxicity against human SK-N-SH cells measured after 8 days; type: functional, cell-based; conditions: 192 h
[53] = Cytotoxicity against human Fu97 cells measured after 8 days; type: functional, cell-based; conditions: Fu97, 192 h
[54] = Cytotoxicity against human COV434 cells measured after 8 days; type: functional, cell-based; conditions: COV434, 192 h
[55] = tested on: COLO-684; experiment: Cytotoxicity against human COLO-684 cells measured after 8 days; type: functional, cell-based; conditions: COLO-684, 192 h
[56] = Cytotoxicity against human HCA1 cells measured after 8 days; type: functional, cell-based; conditions: HCA1, 192 h
[57] = tested on: Huh-7; experiment: Cytotoxicity against human Huh-7 cells measured after 8 days; type: functional, cell-based; conditions: Huh-7, 192 h
[58] = Cytotoxicity against human NCE-G 22 cells measured after 8 days; type: functional, cell-based; conditions: NCE-G 22, 192 h
[59] = Cytotoxicity against human KPR3070 cells measured after 8 days; type: functional, cell-based; conditions: KPR3070, 192 h
[60] = tested on: BFTC-909; experiment: Cytotoxicity against human BFTC-909 cells measured after 8 days; type: functional, cell-based; conditions: BFTC-909, 192 h
[61] = tested on: SH-SY5Y; experiment: Cytotoxicity against human SH-SY5Y cells measured after 8 days; type: functional, cell-based; conditions: 192 h
[62] = target: TGF-beta receptor type-1 (Homo sapiens) (UniProt P36897); experiment: Inhibition of TGFBR1 (unknown origin) at 1 uM relative to control
Sequence of TGF-beta receptor type-1 (Homo sapiens) (P36897 whole entry): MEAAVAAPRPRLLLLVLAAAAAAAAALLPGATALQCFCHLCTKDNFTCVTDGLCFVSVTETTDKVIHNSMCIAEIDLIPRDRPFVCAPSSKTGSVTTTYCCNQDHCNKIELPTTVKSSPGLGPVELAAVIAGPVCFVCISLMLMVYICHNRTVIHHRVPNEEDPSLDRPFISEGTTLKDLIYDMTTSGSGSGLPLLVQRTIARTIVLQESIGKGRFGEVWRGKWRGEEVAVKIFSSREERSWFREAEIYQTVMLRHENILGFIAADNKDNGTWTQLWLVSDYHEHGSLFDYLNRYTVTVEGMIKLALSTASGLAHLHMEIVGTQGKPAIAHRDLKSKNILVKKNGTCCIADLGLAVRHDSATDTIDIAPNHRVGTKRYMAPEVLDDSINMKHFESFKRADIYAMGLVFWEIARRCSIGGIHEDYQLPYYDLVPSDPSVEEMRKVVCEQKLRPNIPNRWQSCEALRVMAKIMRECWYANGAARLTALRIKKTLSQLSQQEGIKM

C/C=C/Cn1cc(-c2ccc(C(=O)N3CCOCC3)cc2)c2cc[nH]c2c1=O
IC50 [1]: 20 µM
IC50 [2]: 20 µM
IC50 [3]: 20 µM
IC50 [4]: 20 µM
IC50 [5]: 20 µM
IC50 [6]: 20 µM
IC50 [7]: 20 µM
IC50 [8]: 12.2 µM
IC50 [9]: 20 µM
IC50 [10]: 20 µM
IC50 [11]: 20 µM
IC50 [12]: 20 µM
IC50 [13]: 20 µM
IC50 [14]: 20 µM
IC50 [15]: 20 µM
IC50 [16]: 20 µM
IC50 [17]: 20 µM
IC50 [18]: 20 µM
IC50 [19]: 20 µM
IC50 [20]: 20 µM
IC50 [21]: 20 µM
IC50 [22]: 20 µM
IC50 [23]: 11.1 µM
IC50 [24]: 2.11 µM
IC50 [25]: 16.7 µM
IC50 [26]: 20 µM
IC50 [27]: 20 µM
IC50 [28]: 20 µM
IC50 [29]: 20 µM
IC50 [30]: 20 µM
IC50 [31]: 20 µM
IC50 [32]: 20 µM
IC50 [33]: 20 µM
IC50 [34]: 11.9 µM
IC50 [35]: 20 µM
IC50 [36]: 20 µM
IC50 [37]: 20 µM
IC50 [38]: 20 µM
IC50 [39]: 20 µM
IC50 [40]: 20 µM
IC50 [41]: 20 µM
IC50 [42]: 20 µM
IC50 [43]: 20 µM
IC50 [44]: 20 µM
IC50 [45]: 20 µM
IC50 [46]: 20 µM
IC50 [47]: 20 µM
IC50 [48]: 20 µM
IC50 [49]: 20 µM
IC50 [50]: 20 µM
IC50 [51]: 20 µM
IC50 [52]: 20 µM
IC50 [53]: 20 µM
IC50 [54]: 20 µM
IC50 [55]: 20 µM
IC50 [56]: 20 µM
IC50 [57]: 20 µM
IC50 [58]: 20 µM
IC50 [59]: 20 µM
IC50 [60]: 20 µM
IC50 [61]: 20 µM

C/C=C/Cn1cc(-c2ccc(C(C)(C)O)cc2OC)c2cc[nH]c2c1=O
IC50 [1]: 20 µM
IC50 [2]: 20 µM
IC50 [3]: 20 µM
IC50 [4]: 20 µM
inhibition [62]: 0%
IC50 [5]: 20 µM
IC50 [6]: 20 µM
IC50 [7]: 20 µM
IC50 [8]: 17.6 µM
IC50 [9]: 20 µM
IC50 [10]: 20 µM
IC50 [11]: 20 µM
IC50 [12]: 20 µM
IC50 [13]: 20 µM
IC50 [14]: 20 µM
IC50 [15]: 20 µM
IC50 [16]: 20 µM
IC50 [17]: 20 µM
IC50 [18]: 20 µM
IC50 [19]: 20 µM
IC50 [20]: 20 µM
IC50 [21]: 14.8 µM
IC50 [22]: 20 µM
IC50 [23]: 20 µM
IC50 [24]: 2.61 µM
IC50 [25]: 20 µM
IC50 [26]: 20 µM
IC50 [27]: 20 µM
IC50 [28]: 20 µM
IC50 [29]: 20 µM
IC50 [30]: 20 µM
IC50 [31]: 20 µM
IC50 [32]: 20 µM
IC50 [33]: 20 µM
IC50 [34]: 20 µM
IC50 [35]: 20 µM
IC50 [36]: 20 µM
IC50 [37]: 20 µM
IC50 [38]: 20 µM
IC50 [39]: 20 µM
IC50 [40]: 20 µM
IC50 [41]: 20 µM
IC50 [42]: 20 µM
IC50 [43]: 20 µM
IC50 [44]: 20 µM
IC50 [45]: 20 µM
IC50 [46]: 20 µM
IC50 [47]: 20 µM
IC50 [48]: 20 µM
IC50 [49]: 20 µM
IC50 [50]: 20 µM
IC50 [51]: 20 µM
IC50 [52]: 20 µM
IC50 [53]: 20 µM
IC50 [54]: 20 µM
IC50 [55]: 20 µM
IC50 [56]: 20 µM
IC50 [57]: 20 µM
IC50 [58]: 20 µM
IC50 [59]: 20 µM
IC50 [60]: 20 µM
IC50 [61]: 20 µM

C/C=C/Cn1cc(-c2cc(OC)c(C(=O)N3CCOCC3)cc2OC)c2cc(C)[nH]c2c1=O
inhibition [62]: -1.5%

Source: ChEMBL document CHEMBL5260810, “Inhibition of bromodomain-containing protein 9 for the prevention of epigenetically-defined drug resistance” (Bioorg Med Chem Lett, 2017)
